In patent US8586505B2 (SDS Biotech K. K., priority 2009, dated 2013):

What was measured:
Phytophthora infestans = assay: whole plant or invertebrate; format: in vivo; settings: in Solanum lycopersicum, 96 h, read-out: Determination of control effect (preventive value)
Tetranychus urticae eggs = assay: Test of examining effect on Tetranychus urticae eggs (ovicidal rate); format: in vivo; settings: 144 h, 0.4 ml sprayed, unhatched eggs counted six days later, read-out: Determination (ovicidal rate)
Protocol: Thereafter, the released female adults were removed. […] Six days later, the number of unhatched eggs was counted, and an ovicidal rate was calculated.

Sphaerotheca fuliginea = assay: Test of examining control effect on Sphaerotheca fuliginea (potted cucumber plants); format: in vivo; settings: Podosphaera fuliginea, 336 h; 10% wettable powder adjusted to 125 ppm, 15 ml/pot sprayed on potted cucumber plants one day before spray inoculation; assessed after 14 days in greenhouse; read-out: Determination of control effect (preventive value) on Sphaerotheca fuliginea
Outline: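 Control effect rated high at preventive value 60–100% and low below 60%, from lesion area relative to untreated plants 14 days after spray inoculation with S. fuliginea (1.0×10^5 cells/ml). Compound applied at 125 ppm as wettable-powder spray one day before inoculation, on 2nd-leaf-stage Sagamihanjiro cucumber.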

[1] = test system: Pseudoperonospora cubensis; assay: Test of examining control effect on Pseudoperonospora cubensis (potted cucumber plants); format: in vivo; settings: 96 h, 10% wettable powder adjusted to 125 ppm, 15 ml/pot sprayed on potted cucumber plants one day before spray inoculation, assessed after 1 day wet chamber and 3 days greenhouse, read-out: Determination of control effect (preventive value) on Pseudoperonospora cubensis
Outline: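 Preventive treatment: 125 ppm sample agent solution (from 10% wettable powder) sprayed at 15 ml/pot on 2.5-leaf Sagamihanjiro cucumbers, then P. cubensis inoculated next day at 1.0×10^4 cells/ml. Incubation was 1 day wet at 21° C plus 3 days greenhouse. Lesion area rate compared with untreated gives preventive value (≥60% high).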

SMILES	pest or weed control at 125 ppm (Phytophthora infestans)	pest or weed control at 250 ppm (Tetranychus urticae eggs)	pest or weed control at 125 µg/mL (Sphaerotheca fuliginea)	pest or weed control at 125 µg/mL [1]	melting point
CC(F)c1ncnc(NCCC#Cc2ccccc2)c1Cl (stereo not drawn) [compound 376]	60 to 100%	≥ 95%	60 to 100%	60 to 100%	–
CCCCC(CC#Cc1ccccc1)Nc1ncnc2sccc12 (stereo not drawn) [compound 269]	0 to 60%	60 to 80%	60 to 100%	60 to 100%	–
CC(CC#Cc1ccc(C(F)(F)F)cc1F)Nc1ncnc2ccccc12 (stereo not drawn) [compound 288]	0 to 60%	≥ 95%	60 to 100%	60 to 100%	–
Cc1ccc(C#CCC(C)Nc2ncnc3sccc23)c(C)c1 (stereo not drawn) [compound 259]	60 to 100%	≥ 95%	60 to 100%	60 to 100%	–
CC(CC#Cc1ccc(C(F)(F)F)cc1Cl)Nc1ncnc2sccc12 (stereo not drawn) [compound 257]	60 to 100%	80 to 95%	60 to 100%	60 to 100%	–
O=[N+]([O-])c1ccccc1C#CCCNc1ncnc2sccc12 [compound 38]	60 to 100%	60 to 80%	–	60 to 100%	–
CC(CC#Cc1ccc(Cl)cc1C(F)(F)F)Nc1ncnc(C(C)F)c1Cl (stereo not drawn) [compound 382]	0 to 60%	≥ 95%	60 to 100%	60 to 100%	–
CC(F)c1ncnc(NCCC#Cc2ccc(Cl)cc2C(F)(F)F)c1Cl (stereo not drawn) [compound 377]	0 to 60%	≥ 95%	60 to 100%	60 to 100%	–
CC(CC#Cc1ccc(Cl)cc1CO)Nc1ncnc2sccc12 (stereo not drawn) [compound 245]	60 to 100%	80 to 95%	60 to 100%	60 to 100%	–
FC(F)=Cc1ccc(C#CCCNc2ncnc3ccccc23)cc1 [compound 113]	0 to 60%	≥ 95%	60 to 100%	60 to 100%	–
Cc1c(Cl)ncnc1NCCC#Cc1ccccc1 [compound 356]	60 to 100%	80 to 95%	60 to 100%	60 to 100%	–
Clc1ccc(C#CCCNc2ncnc3sccc23)cc1 [compound 16]	0 to 60%	60 to 80%	60 to 100%	60 to 100%	–
CC(CC#Cc1ccc(S(F)(F)(F)(F)F)cc1Cl)Nc1ncnc2ccccc12 (stereo not drawn) [compound 283]	60 to 100%	60 to 80%	60 to 100%	60 to 100%	–
Cc1ccc(C#CCCNc2ncnc3sccc23)cc1 [compound 19]	0 to 60%	60 to 80%	60 to 100%	60 to 100%	–
CCC(CC#Cc1ccccc1)Nc1ncnc2sccc12 (stereo not drawn) [compound 267]	0 to 60%	60 to 80%	60 to 100%	60 to 100%	–
CC(CC#Cc1ccc(Cl)cc1)Nc1ncnc2sccc12 (stereo not drawn) [compound 232]	60 to 100%	80 to 95%	60 to 100%	60 to 100%	–
CC(CC#Cc1ccccc1Cl)Nc1ncnc2sccc12 (stereo not drawn) [compound 231]	60 to 100%	60 to 80%	60 to 100%	60 to 100%	–

SMILES	pest or weed control at 125 ppm (Phytophthora infestans)	pest or weed control at 250 ppm (Tetranychus urticae eggs)	pest or weed control at 125 µg/mL (Sphaerotheca fuliginea)	pest or weed control at 125 µg/mL [1]	melting point
Cc1cc(F)ccc1C#CCC(C)Nc1ncnc2sccc12 (stereo not drawn) [compound 246]	60 to 100%	80 to 95%	60 to 100%	60 to 100%	–
Fc1cc2ncnc(NCCC#Cc3ccc(Cl)cc3C(F)(F)F)c2cc1F [compound 355]	60 to 100%	≥ 95%	60 to 100%	60 to 100%	–
Cc1ccccc1C#CCC(C)Nc1ncnc2sccc12 (stereo not drawn) [compound 239]	60 to 100%	80 to 95%	60 to 100%	60 to 100%	–
Cc1ncnc(NC(C)CC#Cc2ccc(Cl)cc2C(F)(F)F)c1Cl (stereo not drawn) [compound 385]	0 to 60%	≥ 95%	60 to 100%	60 to 100%	–
C(#Cc1ccc(C2CCCCC2)cc1)CCNc1ncnc2ccccc12 [compound 109]	0 to 60%	80 to 95%	60 to 100%	60 to 100%	–
CC(CC#Cc1ccc(Cl)cc1C(F)(F)F)Nc1ncnc2c(F)cccc12 (stereo not drawn) [compound 348]	0 to 60%	80 to 95%	60 to 100%	60 to 100%	–
CC(CC#Cc1ccc(Cl)cc1C(F)(F)F)Nc1ncnc2ncccc12 (stereo not drawn) [compound 384]	0 to 60%	≥ 95%	60 to 100%	60 to 100%	–
CC(CC#Cc1c(Cl)cc(C(F)(F)F)cc1Cl)Nc1ncnc2sccc12 (stereo not drawn) [compound 262]	–	≥ 95%	60 to 100%	60 to 100%	–
FC(F)(F)c1cccc(C#CCCNc2ncnc3sccc23)c1 [compound 26]	0 to 60%	–	60 to 100%	60 to 100%	123 to 125 °C
CCc1ccc(C#CCC(C)Nc2ncnc3sccc23)cc1 (stereo not drawn) [compound 240]	60 to 100%	60 to 80%	–	60 to 100%	–
C(#Cc1ccc(OC2CCCCO2)cc1)CCNc1ncnc2ccccc12 (stereo not drawn) [compound 156]	60 to 100%	–	60 to 100%	60 to 100%	163 to 165 °C
OCc1cc(C#CCCNc2ncnc3ccccc23)co1 [compound 209]	0 to 60%	–	0 to 60%	60 to 100%	135 to 147 °C
OCc1cccc(C#CCCNc2ncnc3ccccc23)c1 [compound 131]	60 to 100%	–	60 to 100%	60 to 100%	113 to 115 °C
N#Cc1ccc(Oc2nc(C#CCCNc3ncnc4ccccc34)cs2)cc1 [compound 223]	60 to 100%	–	60 to 100%	60 to 100%	55 to 57 °C
Cc1cc(C)nc(C#CCCNc2ncnc3sccc23)n1 [compound 59]	0 to 60%	–	0 to 60%	0 to 60%	112 to 113 °C
C(#Cc1csc(-c2ccccc2)n1)CCNc1ncnc2sccc12 [compound 76, 4-[4-(2-Phenylthiazol-4-yl)-3-butynylamino]thieno[2,3-d]pyrimidine]	0 to 60%	–	60 to 100%	60 to 100%	134 to 136 °C
